Experiment [1] concerns the target TpsB4 POTRA1 domain (TpsB4-P1; residues 42-121) (P. aeruginosa). The experiment in a line: NMR titration.
The test system of experiment [2] is TpsB4-P1 (TpsB4 POTRA1 domain). As to the kind of experiment: 1H-15N HSQC NMR titration of 15N-labelled TpsB4-P1 with peptides. It is filed as binding, P. aeruginosa.

By Kd is commonly meant the constant that tells how readily two partners part at equilibrium. Low values mean higher affinity, high ones lower affinity. Substance TpsA4^79-95 peptide showed a Kd in experiment [1] of 1.49 mM.
In the case of QVFLVNPNGVLFGRGAQ [CupB5^80–96], the “binding to 15N-labelled TpsB4-P1 (CSPs in 1H-15N HSQC)” value in experiment [2] (200 μM TpsB4-P1, synthetic peptides, free N- and C-termini) is “interacts with TpsB4‐P1 with a virtually identical pattern of CSPs”. For the same substance, the “exchange regime of interaction with TpsB4 POTRA1” value in experiment [2] (NMR timescale) is reported as “fast exchange”.

The values above are taken from article PMC4420518 (Protein Science : A Publication of the Protein Society, 2015).
